The subject of assay [1] is Rat aortic ring. Kind of assay: Rat Aortic Ring Assay. The format is cell-based. The note with it: for Rat Aortic Ring Assay (10 ug/ml), result in words: observed on the sixth day; for inhibition at 10 µg/mL: Rattus norvegicus, 10 ug/ml, compared with blank control, sixth day. The text has this:
Rat Aortic Ring Assay • 1) 6 week old SD […] (Sprague Dawley) were selected for the experiments. Cleaned abdominal skin with 75% ethanol to disinfect, and then anesthetized the mice with ether, • 2) Carefully removed the abdominal aortas and transferred the aortas to normal saline. Excessive vascular tissues were carefully removed with scissors. • 3) The aortas were rinsed with normal saline until no blood stain remained. • 4) Sectioned the aortas into one millimeter depth arterial slices with ophthalmological scissors. • 5) Add 50 μL pre-thawed Matrigel to each well of the pre-cooled 96 well cell culture plates, and embedded the ring-shaped mouse aortas in collagen gel. • 6) Incubated for 60 minutes at 37° C. to solidificate the gel. • 7) Added DMEM culture solution containing 10% FBS, along with different concentrations of the selected compounds into the wells and cultured in the incubator. Every compound was repeated in no less than 3 wells. • 8) Replaced with the fresh medium and changed the medicine once on the third day. • 9) Took out the pates on the sixth day, and observed the vascular growth with Microscope (OLYMPUS, DP70, Japan) and took photographs(×100). Randomly chose 3 arterial rings to photograph and calculated the area covered by micro-vascular with Image Pro Plus software. The inhibition rate is calculated as:
[formula] • Evaluation criteria: ⋆inhibition rate[…]; ⋆⋆inhibition rate 60-90%; ⋆⋆⋆inhibition rate>90%.

Assay [2] addresses VEGFR-2 (Homo sapiens, UniProt P35968). The assay can be described thus: VEGFR-2 inhibition rate test (kinase assay kit, colorimetric ELISA). The note with it: concentration not given. A general note: In an ELISA, binding on a coated surface is turned into a signal by an enzyme label.
Assay [3] has as its system Microvascular Endothelial Cells (MVEC). Kind of assay: MTT growth inhibition of MVEC. The format is cell-based. The note with it: Endothelial cell, 96 h, 4 days culture with drug, read-out: IG50 on inhibiting growth of MVEC. The protocol: In Vitro Anti-Tumor Activity Test
Put cell suspension into centrifugal tubes with a pipette under sterile conditions, then the cell suspension was centrifuged for 3 minutes at 1300 rpm. Discarded the supernatant lightly and added fresh culture medium. Mixed the cells by pipetting, then transferred the cells into culture flasks, and put them into the CO2 incubator. Changed the culture medium once after 24 hours.
Human prostate cancer cells (DU145, PC-3) were cultured in a medium containing RPMI1640 basic medium supplemented with 10% heat-inactivated FBS, 100 IU/mL penicillin, 100 μg/mL streptomycin and 1 mmol/L L-glutamine. Human breast carcinoma cells (T47D, MDA-MB231) were cultured in a medium containing RPM11640 basic medium supplemented with 10% heat-inactivated FBS, 5 μg/mL insulin, 100 IU/mL penicillin, 100 μg/mL streptomycin and 1 mmol/L L-glutamine. Human breast carcinoma cells (MCF-7) were cultured in a medium containing DMEM basic medium supplemented with 10% heat-inactivated FBS, 5 μg/mL insulin, 100 IU/mL penicillin, 100 μg/mL streptomycin and […]. Murine Lewis lung cancer cells (LL/2), murine melanoma cells (B16FD) and Microvascular Endothelial Cells (MVEC) were cultured in a medium containing DMEM basic medium supplemented with 10% heat-inactivated FBS, 4.5 g/L glucose, 1.5 g/L NaHCO3, 100 IU/mL penicillin, 100 μg/mL streptomycin and 4 mmol/L L-glutamine. All these cell lines were incubated at 37° C. biochemical incubator with 5% CO2 saturated humidity.
After resuscitation, the cells were passed for 2-3 generations till they became stable, then they were used for the experiments. Each passage was based on the standard that all cells were spread over the bottoms of culture flasks.
Cells were digested off from the bottoms of culture flasks with trypsin (0.25%). The cell dissociation buffer was transferred into centrifuge tubes, added medium to stop the digestion, and centrifuged for 3 minutes at 1300 rpm. Discarded the supernatant lightly and added fresh culture medium (5 mL). Mixed the cells by pipetting, then added 10 μL of the cell suspension into the cell counting plate, and adjusted the cell concentration to 2×10^4 cells/mL. Added 100 μL of the cell suspension to all wells on the 96 well plates, except A1 well as the blank control. Put the plates into the biochemical incubator for 24 hours and to make sure the cells grew along the walls.
The drugs were dissolved in 80 mmol/L DMSO first, and then diluted the drugs with ethanol to 8 mmol/L. The solution was further diluted with the culture medium to different concentrations as 160 μmol/L, 120 μmol/L, 80 μmol/L, 40 μmol/L, 20 μmol/L and 10 μmol/L. Added 100 μL of the drug solution to each well on the 96 well plates. Therefore, the final concentrations of the drugs that were added to the cells were 80 μmol/L, 40 μmol/L, 20 μmol/L, 10 μmol/L and 5 μmol/L, and each concentration were repeated in three parallel wells. Put the culture plates into the biochemical incubator to culture continuously for 4 days.
Added 50 μL MTT liquids (2 mg/mL) into each well, put the culture plates into the biochemical incubator for 4 h, discarded MTT liquids (TCC), added 200 μL DMSO, then oscillated for 10 minutes on the magnetic oscillator to make sure that the survived cells and the reaction product of MTT were fully dissolved. Detected and recorded the absorbance (OD) values of each well at the wavelength of 570 nm using the microplate reader. The OD values of cells without tested drugs were used as control. The cell growth inhibition rates under each drug concentration were calculated by the following formula. […] Inhibition rate of growth(%)=(1−The absorbance(OD)of cells with tested drugs/The absorbance(OD)of the blank control group)×100%
The absorbance (OD) of cells with tested drugs: OD value is measured with the test drugs.
The absorbance (OD) of the blank control group: OD value is measured without the test drugs. […]

23 compounds from patent publication US8349835B2, “Aromatic ring fused triazine derivatives and uses thereof” (Shenyang Pharmaceutical University, priority 2008, dated 2013) can be followed below.

The inhibition is the change of the read-out against control, counted positive when it falls. Low values mean a weak effect, high ones a strong effect.

Chain of VEGFR-2 (P35968 20-1356): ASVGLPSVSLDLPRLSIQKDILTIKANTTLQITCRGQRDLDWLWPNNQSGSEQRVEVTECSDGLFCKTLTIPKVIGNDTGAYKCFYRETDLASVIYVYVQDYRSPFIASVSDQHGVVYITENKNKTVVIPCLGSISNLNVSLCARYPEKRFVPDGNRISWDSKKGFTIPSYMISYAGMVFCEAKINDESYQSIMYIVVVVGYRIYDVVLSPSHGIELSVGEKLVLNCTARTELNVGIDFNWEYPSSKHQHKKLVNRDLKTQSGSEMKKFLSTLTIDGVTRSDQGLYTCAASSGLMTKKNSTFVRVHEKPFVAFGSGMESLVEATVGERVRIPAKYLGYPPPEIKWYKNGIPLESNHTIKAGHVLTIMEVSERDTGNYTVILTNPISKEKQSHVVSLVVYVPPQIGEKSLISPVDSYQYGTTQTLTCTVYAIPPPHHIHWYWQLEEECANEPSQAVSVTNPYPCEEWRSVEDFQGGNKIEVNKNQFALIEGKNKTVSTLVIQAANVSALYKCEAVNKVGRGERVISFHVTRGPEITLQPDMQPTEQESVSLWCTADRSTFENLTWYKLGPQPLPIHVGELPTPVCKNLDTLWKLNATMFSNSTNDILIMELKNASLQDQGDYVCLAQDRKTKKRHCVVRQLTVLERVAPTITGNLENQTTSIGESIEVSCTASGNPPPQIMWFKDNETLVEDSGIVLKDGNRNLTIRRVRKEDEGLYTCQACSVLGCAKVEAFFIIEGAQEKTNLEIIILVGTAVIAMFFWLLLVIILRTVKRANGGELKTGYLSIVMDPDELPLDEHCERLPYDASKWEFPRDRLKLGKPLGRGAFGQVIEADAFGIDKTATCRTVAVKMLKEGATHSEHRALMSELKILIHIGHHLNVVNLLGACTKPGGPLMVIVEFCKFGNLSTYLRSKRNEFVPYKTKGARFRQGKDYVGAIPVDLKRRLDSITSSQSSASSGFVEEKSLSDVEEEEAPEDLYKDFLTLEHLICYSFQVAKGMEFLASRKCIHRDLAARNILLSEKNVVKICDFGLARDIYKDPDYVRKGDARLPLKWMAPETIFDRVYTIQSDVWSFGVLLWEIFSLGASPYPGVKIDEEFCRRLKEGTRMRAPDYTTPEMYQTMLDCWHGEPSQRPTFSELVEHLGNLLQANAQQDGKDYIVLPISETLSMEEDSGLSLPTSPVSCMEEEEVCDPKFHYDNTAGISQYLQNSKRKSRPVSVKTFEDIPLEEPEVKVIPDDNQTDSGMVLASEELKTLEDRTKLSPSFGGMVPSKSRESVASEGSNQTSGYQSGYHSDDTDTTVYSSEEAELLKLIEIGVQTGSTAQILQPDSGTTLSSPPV

With `CCCCOc1cc2nnnc(Nc3cc(Cl)cc(Cl)c3)c2cc1OC` [Example 13, 6-methoxy-7-n-butoxy-4-(3,5-dichloroanilino)-benzo[d][1,2,3]triazine], in assay [1], the “Rat Aortic Ring Assay (10 ug/ml), result in words” value (“Rat Aortic Ring Assay (10 ug/ml)” for short) is “No significant inhibition”. Besides, the “Kinase inhibition rate (VEGFR-2)” value in assay [2] was −9.89. In addition, in assay [3], the IC50 is 3.17 µM.
In turn, `CCCCOc1cc2nnnc(Nc3ccc(Cl)c(Cl)c3)c2cc1OC` [Example 15, 6-methoxy-7-n-butoxy-4-(3,4-dichloroanilino)-benzo[d][1,2,3]triazine] returned an inhibition at 10 µg/mL in assay [1] of around 30%. Further, the IC50 in assay [3] was 15.5 µM.
As to `CCCCOc1cc2nnnc(Nc3cccc(Br)c3)c2cc1OC` [Example 25, 6-methoxy-7-n-butoxy-4-(3-bromoanilino)-benzo[d][1,2,3]triazine], in assay [2], the “Kinase inhibition rate (VEGFR-2)” value was 5.61. The IC50 in assay [3] amounted to 16.8 µM.
As to `CCOc1cc2nnnc(Nc3ccc(Cl)c(Cl)c3)c2cc1OC` [Example 32, 6-methoxy-7-ethoxy-4-(3,4-dichloroanilino)-benzo[d][1,2,3]triazine], the IC50 in assay [3] was 14.3 µM.
Still for that read-out and setting: the figure for `CCOc1cc2nnnc(Nc3ccc(Cl)cc3)c2cc1OC` [Example 33, 6-methoxy-7-ethoxy-4-(4-chloroanilino)-benzo[d][1,2,3]triazine] is 26.5 µM.
Take `CCCCCOc1cc2nnnc(Nc3ccc(Cl)c(Cl)c3)c2cc1OC` [Example 48, 6-methoxy-7-pentyloxy-4-(3,4-dichloroanilino)-benzo[d][1,2,3]triazine]: the “Kinase inhibition rate (VEGFR-2)” value in assay [2] is given as −21.65. In addition, in assay [3], the IC50 amounted to 16.9 µM.
As for `CCCCCOc1cc2nnnc(Nc3ccc(Cl)cc3)c2cc1OC` [Example 49, 6-methoxy-7-pentyloxy-4-(4-chloroanilino)-benzo[d][1,2,3]triazine], in assay [3], the IC50 amounted to 25.3 µM.
Consider `CCCCCOc1cc2nnnc(Nc3ccc(F)c(Cl)c3)c2cc1OC` [Example 55, 6-methoxy-7-pentyloxy-4-(3-chloro-4-fluoroanilino)benzo[d][1,2,3]triazine], for which the “Kinase inhibition rate (VEGFR-2)” value in assay [2] was −0.53. For the same compound, the IC50 in assay [3] stood at 14.8 µM.
The matching figures for `CCCCCOc1cc2nnnc(Nc3ccc(F)c(C(F)(F)F)c3)c2cc1OC` [Example 56, 6-methoxy-7-pentyloxy-4-(3-trifluoromethyl-4-fluoroanilino)-benzo[d][1,2,3]triazine]: −3.74 and 16.3 µM.
Taken in the same sequence, the figures for `COc1cc2c(Nc3cc(Cl)cc(Cl)c3)nnnc2cc1OCCCCl` [Example 63, 6-methoxy-7-chloropropoxy-4-(3,5-dichloroanilino)-benzo[d][1,2,3]triazine] were −9.97 and 28.8 µM.
Regarding `COc1cc2c(Nc3ccc(Cl)c(Cl)c3)nnnc2cc1OCCCCl` [Example 65, 6-methoxy-7-chloropropoxy-4-(3,4-dichloroanilino)-benzo[d][1,2,3]triazine], the IC50 in assay [3] is 11 µM.
Consider `COc1cc2c(Nc3ccc(Cl)cc3)nnnc2cc1OCCCCl` [Example 66, 6-methoxy-7-chloropropoxy-4-(4-chloroanilino)-benzo[d][1,2,3]triazine], for which the “Kinase inhibition rate (VEGFR-2)” value in assay [2] is on record as −10.15. Also, the IC50 in assay [3] is 38.6 µM.
Taken in the same sequence, the figures for `COc1cc2c(Nc3cccc(OC(F)(F)F)c3)nnnc2cc1OCCCCl` [Example 69, 6-methoxy-7-chloropropoxy-4-(3-trifluoromethoxyanilino)-benzo[d][1,2,3]triazine] were −14.75 and 24.9 µM.
Regarding `COc1cc2c(Nc3ccc(OC(F)(F)F)cc3)nnnc2cc1OCCCCl` [Example 70, 6-methoxy-7-chloropropoxy-4-(4-trifluoromethoxyanilino)-benzo[d][1,2,3]triazine], in assay [1], the inhibition at 10 µg/mL was above 50%. Also, the “Kinase inhibition rate (VEGFR-2)” value in assay [2] stood at 16.65. Further, the IC50 in assay [3] was determined as 23.2 µM.
`COc1cc2c(Nc3ccc(F)c(C(F)(F)F)c3)nnnc2cc1OCCCCl` [Example 73, 6-methoxy-7-chloropropoxy-4-(3-trifluoromethyl-4-fluoroanilino)-benzo[d][1,2,3]triazine]: in assay [2], the “Kinase inhibition rate (VEGFR-2)” value came to 2.40. For the same compound, in assay [3], the IC50 is 15.2 µM.
As to `COc1cc2c(Nc3ccc(C)cc3)nnnc2cc1OCCCCl` [Example 77, 6-methoxy-7-chloropropoxy-4-(4-methylanilino)-benzo[d][1,2,3]triazine], the “Rat Aortic Ring Assay (10 ug/ml)” value in assay [1] is given as “Micro-vascular growth was significantly inhibited, affecting cell”. The IC50 in assay [3] is 17.1 µM.
Turning to `Fc1cc(Nc2nnnc3ccc(Cl)nc23)ccc1Br` [Example 79, 6-chloro-4-(3-fluoro-4-bromoanilino)-pyrido[3,2-d][1,2,3]-triazine], the “Rat Aortic Ring Assay (10 ug/ml)” value in assay [1] is listed as “Almost complete inhibition (10 μg/mL), vascular ring was dead”. The IC50 in assay [3] is 9.56 µM.
As to `Clc1cc(Cl)cc(Nc2nnnc3ccc(Cl)nc23)c1` [Example 80, 6-chloro-4-(3,5-dichloroanilino)pyrido[3,2-d][1,2,3]triazine], in assay [1], the “Rat Aortic Ring Assay (10 ug/ml)” value was “Almost complete inhibition (10 μg/mL), vascular ring was dead”. Besides, in assay [3], the IC50 worked out at 7.93 µM.
In the case of `Clc1ccc2nnnc(Nc3ccc(Cl)c(Cl)c3)c2n1` [Example 82, 6-chloro-4-(3,4-dichloroanilino)pyrido[3,2-d][1,2,3]triazine], the inhibition at 10 µg/mL in assay [1] was above 80%. Further, the IC50 in assay [3] was 9.19 µM.
For `FC(F)(F)c1ccc(Nc2nnnc3ccc(Cl)nc23)cc1` [Example 85, 6-chloro-4-(4-trifluoromethylanilino)pyrido[3,2-d][1,2,3]triazine], the “Rat Aortic Ring Assay (10 ug/ml)” value in assay [1] is recorded as “No significant inhibition”. Further, the IC50 in assay [3] came to 8.06 µM.
Regarding `FC(F)(F)Oc1ccc(Nc2nnnc3ccc(Cl)nc23)cc1` [Example 87, 6-chloro-4-(4-trifluoromethoxyanilino)pyrido[3,2-d][1,2,3]triazine], the “Rat Aortic Ring Assay (10 ug/ml)” value in assay [1] is on record as “Almost complete inhibition (10 μg/mL), vascular ring was dead”. The IC50 in assay [3] came out at 11.5 µM.
Regarding `Fc1ccc(Nc2nnnc3ccc(Cl)nc23)cc1Cl` [Example 89, 6-chloro-4-(3-chloro-4-fluoroanilino)pyrido[3,2-d][1,2,3]triazine], the “Kinase inhibition rate (VEGFR-2)” value in assay [2] is given as −0.25. For the same compound, the IC50 in assay [3] was 9.85 µM.
For `Fc1ccccc1Nc1nnnc2ccc(Cl)nc12` [Example 91, 6-chloro-4-(2-fluoroanilino)pyrido[3,2-d][1,2,3]triazine], the “Rat Aortic Ring Assay (10 ug/ml)” value in assay [1] was “No significant inhibition”. Besides, in assay [3], the IC50 amounted to 10.8 µM.
